{"source": "patent US8410170B2", "about": "“Use of isothiocyanates compounds in treating prostatic diseases and skin cancer” (Wuxi JC Pharmaceutical Technology Co., Ltd., priority 2005, dated 2013)", "key": {"LNCaP AD": {"test_system": "LNCaP AD", "assay": "MTT growth inhibition, hormone dependent LNCaP AD", "assay_type": "cell-based", "settings": "Homo sapiens, LNCaP, 168 h, read-out: IC50, growth inhibition", "description": "The human prostate cancer cell line LNCaP AD was purchased from the American Type Culture Collection. LNCaP AI cell line was derived from LNCaP cells using a method described previously by Gao et al. (Gao, M., Ossowski, L., and Ferrari, A. C. Activation of Rb and decline in androgen receptor protein precede retinoic acid-induced apoptosis in androgen-dependent LNCaP cells and their androgen-independent derivative. J Cell Physiol, 179: 336-346, 1999). The AD and AI cells were maintained in RPMI-1640 with 10% fetal bovine serum (FBS) and charcoal stripped fetal bovine serum, penicillin-streptomycin for incubation at 5% CO2 and 37° C. respectively.\nMTT: MTT and SRB method were used to determine the effects of various isothiocyanates on cell growth as described previously (Kreis, Budman et al, 1997). Briefly, human prostate cancer cell line LNCaP grown exponentially were aliquoted into 96-well plates at a density of 2500 cells/200 μl per well. Twenty-four hrs after the incubation, the cells were exposed for seven days to serial dilutions of indicated isothiocyanate or paclitaxel. […] The absorbance was measured at wavelength 540 nm. The percent of cell survival (T/C%) were calculated based on the results of test groups to that of the control group. […]"}, "BPH": {"test_system": "BPH", "assay": "Therapeutic effects on BPH: Test One (castrated rats, testosterone propionate)", "assay_type": "in vivo, SD rats", "settings": "for Average Weight of Prostate: one month", "protocol": "Sixty male SD rats were randomly divided into 6 groups, ten each. The animals were anesthetized using ketamine and castrated by removing testis under sterile conditions. After the surgery, the penicillin was injected to prevent the animals from infection. One week later, the testosterone propionate was injected subcutaneously at dose of 1 mg/rat for a month, once a day. Group 1 was served as a negative control group, and the animals of group 1 were given saline orally without any active pharmaceutical ingredient for a month beginning on the same day the testosterone propionate was injected. Group 2 was served as positive control group in which animals were given estradiol subcutaneously at a dose of 0.1 mg/rat for a month beginning on the same day the testosterone propionate was injected. Groups from 3 to 6 was served as drug treatment groups in which animals were given tested articles on the same day the testosterone propionate was injected.\nTwenty-four hrs after the last dosage, the animals were euthanized and weighed. Volume and weight of prostate were measured. The averages of volume/weight and organ coefficient (average weight of prostate/average of body weight) were calculated, and statistical analysis performed (t test)."}, "GSTP1": {"test_system": "GSTP1", "assay": "Western blot to detect GSTP1 protein in LNCaP cells", "assay_type": "cell-based, human", "settings": "LNCaP cells exposed 24 hrs", "protocol": "Western blot to detect GSTP1 protein (FIG. 1): […] The cells were harvested, washed and total cellular proteins were extracted as described previously (Wang, […], et al. […] Cancer Res 61(20): 7544-51, 2001). Fifty μg cellular extracts were separated on a SDS-PAGE, electro-transferred to nitrocellulose filters, and immunoblotted initially with antibodies against GSTP1. The same membranes were stripped and re-probed with β-actin for loading control. The result was recorded by ECL films."}, "Sp1": {"test_system": "Sp1", "assay": "Western blot to detect Sp1 in LNCaP cells", "assay_type": "cell-based, human", "settings": "24 hrs", "protocol": "(§1) The cells were harvested, washed and total cellular proteins were extracted as described previously (as Example 2). Fifty μg proteins were then subjected to electrophoresis in SDS-PAGE, electro-transferred to nitrocellulose filters, and immunoblotted initially with antibodies against AR, Sp1, and PSA. The same membranes were stripped and re-probed with β-actin for loading control. The result was recorded by ECL films."}, "PSA": {"test_system": "PSA", "assay": "Western blot to detect PSA in LNCaP cells", "assay_type": "cell-based, human", "settings": "24 hrs", "protocol": "as §1"}, "transcription factor Sp1": {"test_system": "transcription factor Sp1", "assay": "Sp1-luc luciferase activity assay in transfected LNCaP AD cells", "assay_type": "cell-based, human", "settings": "24 hrs", "description": "The Sp1-luc and mtSp1-luc contain three tandem repeats of consensus Sp1 sites driving the luciferase gene and its mutant. […] Effectene transfection reagent and luciferase assay kit were acquired from Qiagen (Valencia, Calif., USA) and Promega (Madison, Wis., USA). Reagents for protein electrophoresis were purchased from Bio-Rad company (USA). The other chemicals were purchased from Sigma (St. Louis, Mo.) otherwise as indicated. […] (Gao, M., Ossowski, L., and Ferrari, A. C. Activation of Rb and decline in androgen receptor protein precede retinoic acid-induced apoptosis in androgen-dependent LNCaP cells and their androgen-independent derivative. J Cell Physiol, 179: 336-346, 1999). The AD and AI cells were maintained in RPMI-1640 with 10% fetal bovine serum (FBS) and charcoal stripped fetal bovine serum, penicillin-streptomycin for incubation at 5% CO2 and 37° C. respectively. […] After incubation for 24 hrs at 5% CO2 and 37° C., the cells were transfected with 1 μg/dish of SP1-luciferase gene (Sp1-luc), or its mutant mtSp1-luc using Effectene (Qiagen, Valencia, Calif.) as the transfection reagent. […] The cells were collected, washed, lysed, and the lysates were used for luciferase activity assay using Promega luciferase assay system."}, "[1]": {"test_system": "xenograft B16 mouse tumor", "settings": "15 days", "protocol": "The B16 mouse melanoma cells at exponential growth phase were suspended in PBS. […] Adjusted the suspension to a cell concentration of approximately 1×10^7/ml. 0.2 ml of the suspension were transplanted subcutaneously into right axillary subcutis for passaging.\nUnder sterile condition the xenograft B16 mouse tumor in mice was stripped from axillary subcutis. After cutting by scissors, the tumor with saline (1:3) was ground in a glass homogenizer. Monocell suspension was made with saline. […] Then adjusted the suspension to a cell density of approximately 1×10^7/ml with saline. 0.2 ml were transplanted subcutaneously into right axillary subcutis of each mouse. After transplanting, randomly divided the mouse into 5 groups, 12 each.\nTumors were taken out, sizes and weights were measured, and the percent of inhibitions were calculated."}}, "note": "Entries after “also recorded” stand apart in the source; their conditions may differ. Like-named read-outs stand apart in the source and are kept apart here.", "data": [{"molecule": "S=C=NCCc1ccccc1", "note": "[PEITC, phenethyl isothiocyanate]", "values": [{"measurement": "IC50", "setting": "LNCaP AD", "value": 600, "unit": "nM"}, {"measurement": "Average Weight of Prostate", "setting": "BPH; aqueous base formulation (Example 13-11), 1 mg/kg gavage", "value": 0.75, "unit": "g"}, {"measurement": "Average Weight of Prostate", "setting": "BPH; aqueous base formulation (Example 13-11), 4 mg/kg gavage", "value": 0.83, "unit": "g"}, {"measurement": "Organ Coefficient", "setting": "BPH; aqueous base formulation, 1 mg/kg", "value": 0.21, "unit": "%"}, {"measurement": "Organ Coefficient", "setting": "BPH; aqueous base formulation, 4 mg/kg", "value": 0.23, "unit": "%"}, {"measurement": "Average Weight of Prostate", "setting": "BPH; oil base formulation (Example 13-3), 1 mg/kg gavage", "value": 0.91, "unit": "g"}, {"measurement": "Average Weight of Prostate", "setting": "BPH; oil base formulation (Example 13-3), 4 mg/kg gavage", "value": 0.79, "unit": "g"}, {"measurement": "Organ Coefficient", "setting": "BPH; oil base formulation, 1 mg/kg", "value": 0.25, "unit": "%"}, {"measurement": "Organ Coefficient", "setting": "BPH; oil base formulation, 4 mg/kg", "value": 0.23, "unit": "%"}, {"measurement": "expression of GSTP1 (Western blot)", "setting": "GSTP1", "value": "significantly restored; also recorded: effectively induce"}, {"measurement": "expression of Sp1 (Western blot)", "setting": "Sp1", "value": "significantly inhibited"}, {"measurement": "expression of PSA (Western blot)", "setting": "PSA", "value": "significantly inhibited"}, {"measurement": "luciferase activity of Sp1-luc transfected gene", "setting": "transcription factor Sp1", "value": "significantly decreased"}, {"measurement": "Changes in Body Weight", "setting": "[1]; PEITC 70 mg/kg/d gavage (Example 13-16)", "value": "9.78 ± 4.28", "unit": "g"}, {"measurement": "Average of Tumor Weight", "setting": "[1]; PEITC 70 mg/kg/d gavage", "value": "1.23 ± 0.68", "unit": "g"}, {"measurement": "Inhibition", "setting": "[1]; PEITC 70 mg/kg/d gavage", "value": 39.23, "unit": "%"}, {"measurement": "Changes in Body Weight", "setting": "[1]; PEITC 120 mg/kg/d gavage (Example 13-16)", "value": "6.34 ± 3.42", "unit": "g"}, {"measurement": "Average of Tumor Weight", "setting": "[1]; PEITC 120 mg/kg/d gavage", "value": "0.91 ± 0.23**∇ g"}, {"measurement": "Inhibition", "setting": "[1]; PEITC 120 mg/kg/d gavage", "value": 58.54, "unit": "%"}]}]}
